# According to US6881419B2, “Vitamin formulation for enhancing bone strength” (priority 2002, dated 2005):
# Test system: osteoporosis
# Experiment: Case Study-1: bone scan, tolerability and energy in a subject with osteoporosis and rheumatoid arthritis
# Settings: person, placed on it at diagnosis of osteoporosis
# Source text: The exemplary case studies utilize subjects ranging from fifty-one (51) to eighty-three (83) years of age.
structure (smiles),measurement,value
NCCCC(O)(P(=O)([O-])O)P(=O)(O)O.[Na+] [Fosimex],Tolerability (stomach problems which developed into an ulcer),unable to tolerate
